Data on 28 molecules can be found in US20250346574A1, “PYRIDINYL SUBSTITUTED OXOISOINDOLINE COMPOUNDS FOR THE TREATMENT OF CANCER” (Bristol-Myers Squibb Company, priority 2021, published 2025).

The term DC50 denotes the concentration at which degradation of the target reaches its halfway point.

SMILES strings stand for the structures.

The target of this assay is Helios (Homo sapiens, UniProt Q96SW2+Q9UKS7). Nature of the assay: Helios Human T Regulatory Cells Degradation Assay. In kind it is cell-based. More on the design: fluorescently labelled antibodies against Helios in 1× Permeabilization buffer; endogenous in cells; host or cells: cryopreserved human T regulatory cells. To be noted: cryopreserved human T regulatory cells, incubated 20 hours, Helios-APC antibody staining, flow cytometry; read-out: hTreg Helios DC50. A digest of the protocol: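 Cryopreserved human Treg cells thawed in RPMI+10% FBS+20 ng/mL IL-2, rested 3 h, then incubated with compound 20 hours at 37° C, 5% CO2. Near-IR viability stain, permeabilization, flow cytometry read-out.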
Chain of Helios (Q9UKS7 whole entry): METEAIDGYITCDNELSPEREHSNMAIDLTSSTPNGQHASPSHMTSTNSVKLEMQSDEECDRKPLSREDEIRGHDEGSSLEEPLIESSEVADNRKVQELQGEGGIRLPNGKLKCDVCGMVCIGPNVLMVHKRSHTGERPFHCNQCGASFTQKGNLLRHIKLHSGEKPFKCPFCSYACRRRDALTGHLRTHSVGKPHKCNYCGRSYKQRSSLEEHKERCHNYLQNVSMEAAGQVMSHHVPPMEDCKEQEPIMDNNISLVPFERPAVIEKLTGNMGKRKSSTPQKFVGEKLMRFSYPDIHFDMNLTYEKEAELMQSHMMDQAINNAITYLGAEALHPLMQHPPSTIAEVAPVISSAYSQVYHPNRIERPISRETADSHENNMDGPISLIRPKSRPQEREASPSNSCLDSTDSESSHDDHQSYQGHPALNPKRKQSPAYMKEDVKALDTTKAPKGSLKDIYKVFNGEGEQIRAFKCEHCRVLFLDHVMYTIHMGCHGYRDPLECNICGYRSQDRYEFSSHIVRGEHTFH
Chain of Helios (Q96SW2 whole entry): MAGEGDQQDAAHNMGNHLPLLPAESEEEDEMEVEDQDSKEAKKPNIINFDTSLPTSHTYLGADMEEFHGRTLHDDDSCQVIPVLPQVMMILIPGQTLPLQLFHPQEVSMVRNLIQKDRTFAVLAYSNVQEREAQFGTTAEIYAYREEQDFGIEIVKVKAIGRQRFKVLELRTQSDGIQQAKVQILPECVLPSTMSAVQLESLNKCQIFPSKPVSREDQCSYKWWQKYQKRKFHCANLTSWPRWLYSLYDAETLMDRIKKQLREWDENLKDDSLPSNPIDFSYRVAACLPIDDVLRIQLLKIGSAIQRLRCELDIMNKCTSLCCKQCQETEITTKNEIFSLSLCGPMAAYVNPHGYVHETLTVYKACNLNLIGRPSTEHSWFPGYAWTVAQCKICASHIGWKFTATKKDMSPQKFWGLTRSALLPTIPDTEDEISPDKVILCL
Chain of Helios (Q16531 whole entry partner): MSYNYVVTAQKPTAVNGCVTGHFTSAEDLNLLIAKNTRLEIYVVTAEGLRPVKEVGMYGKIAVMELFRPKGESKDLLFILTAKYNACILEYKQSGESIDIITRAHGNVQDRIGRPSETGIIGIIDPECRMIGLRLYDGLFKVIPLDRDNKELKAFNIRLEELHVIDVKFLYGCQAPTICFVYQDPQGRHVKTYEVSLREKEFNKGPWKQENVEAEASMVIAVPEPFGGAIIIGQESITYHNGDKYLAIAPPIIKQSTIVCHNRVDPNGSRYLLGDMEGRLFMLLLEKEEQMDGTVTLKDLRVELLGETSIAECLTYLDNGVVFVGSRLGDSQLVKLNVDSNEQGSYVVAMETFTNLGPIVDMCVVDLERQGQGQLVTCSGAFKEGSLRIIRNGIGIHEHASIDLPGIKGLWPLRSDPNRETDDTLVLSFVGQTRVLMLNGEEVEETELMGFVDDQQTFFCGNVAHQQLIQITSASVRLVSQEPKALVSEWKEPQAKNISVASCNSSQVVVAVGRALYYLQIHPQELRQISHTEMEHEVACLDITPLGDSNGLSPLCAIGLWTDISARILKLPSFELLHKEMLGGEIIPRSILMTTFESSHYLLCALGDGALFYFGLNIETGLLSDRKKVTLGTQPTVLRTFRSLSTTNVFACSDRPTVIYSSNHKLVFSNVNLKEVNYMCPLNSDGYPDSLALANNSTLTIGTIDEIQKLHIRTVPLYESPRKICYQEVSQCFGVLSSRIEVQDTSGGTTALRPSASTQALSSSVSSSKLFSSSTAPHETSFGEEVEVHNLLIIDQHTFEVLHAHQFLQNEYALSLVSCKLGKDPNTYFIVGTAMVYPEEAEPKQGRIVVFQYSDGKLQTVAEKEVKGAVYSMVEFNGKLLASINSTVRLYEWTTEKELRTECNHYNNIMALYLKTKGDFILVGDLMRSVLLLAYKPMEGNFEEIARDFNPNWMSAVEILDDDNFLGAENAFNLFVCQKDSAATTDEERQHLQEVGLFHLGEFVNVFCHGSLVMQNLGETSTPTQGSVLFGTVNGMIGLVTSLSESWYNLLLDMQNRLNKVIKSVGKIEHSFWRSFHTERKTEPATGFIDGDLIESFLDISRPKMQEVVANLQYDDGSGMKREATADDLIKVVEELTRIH
On the technique in general: A flow cytometer gives signals particle by particle.
Turning to `O=C1CCC(N2Cc3cc(-c4nccc(CN5CCCC(F)C5)c4F)ccc3C2=O)C(=O)N1` (stereo not shown) [Example 205, 3-(5-(3-fluoro-4-((3-fluoropiperidin-1-yl)methyl)pyridin-2-yl)-1-oxoisoindolin-2-yl)piperidine-2,6-dione], the DC50 was no less than 10000 nM.
In the case of `CC1(C)C2CN(Cc3ccnc(-c4ccc5c(c4)CN(C4CCC(=O)NC4=O)C5=O)c3F)CC21` (stereo not shown) [Example 206, 3-(5-(4-((6,6-dimethyl-3-azabicyclo[3.1.0]hexan-3-yl)methyl)-3-fluoropyridin-2-yl)-1-oxoisoindolin-2-yl)piperidine-2,6-dione], the DC50 worked out at 11.1 nM.
For `CC(C)(C)OC(=O)N1CCC2(CN(Cc3ccnc(-c4ccc5c(c4)CN(C4CCC(=O)NC4=O)C5=O)c3F)C2)C1` (stereo not shown) [Example 207, tert-butyl 2-((2-(2-(2,6-dioxopiperidin-3-yl)-1-oxoisoindolin-5-yl)-3-fluoropyridin-4-yl)methyl)-2,6-diazaspiro[3.4]octane-6-carboxylate], the half-maximal degradation concentration (DC50) is no less than 10000 nM.
Next, `CC(C)(C)OC(=O)N1CCCC2(CN(Cc3ccnc(-c4ccc5c(c4)CN(C4CCC(=O)NC4=O)C5=O)c3F)C2)C1` (stereo not shown) [Example 208, tert-butyl 2-((2-(2-(2,6-dioxopiperidin-3-yl)-1-oxoisoindolin-5-yl)-3-fluoropyridin-4-yl)methyl)-2,6-diazaspiro[3.5]nonane-6-carboxylate]: no less than 10000 nM.
Next, `O=C1CCC(N2Cc3cc(-c4nccc(CN5CCC(O)(C(F)(F)F)CC5)c4F)ccc3C2=O)C(=O)N1` (stereo not shown) [Example 209, 3-(5-(3-fluoro-4-((4-hydroxy-4-(trifluoromethyl)piperidin-1-yl)methyl)pyridin-2-yl)-1-oxoisoindolin-2-yl)piperidine-2,6-dione]: no less than 10000 nM; `CC(C)(C)OC(=O)N1CCCC12CCN(Cc1ccnc(-c3ccc4c(c3)CN(C3CCC(=O)NC3=O)C4=O)c1F)C2` (stereo not shown) [Example 213, tert-butyl 7-((2-(2-(2,6-dioxopiperidin-3-yl)-1-oxoisoindolin-5-yl)-3-fluoropyridin-4-yl)methyl)-1,7-diazaspiro[4.4]nonane-1-carboxylate]: no less than 10000 nM.
Next, `CC(C)(C)OC(=O)N1CCC12CCCN(Cc1ccnc(-c3ccc4c(c3)CN(C3CCC(=O)NC3=O)C4=O)c1F)C2` (stereo not shown) [Example 216, tert-butyl 6-((2-(2-(2,6-dioxopiperidin-3-yl)-1-oxoisoindolin-5-yl)-3-fluoropyridin-4-yl)methyl)-1,6-diazaspiro[3.5]nonane-1-carboxylate]: no less than 10000 nM.
In the case of `C[C@@](O)(c1ccccc1)[C@H]1CCCN1Cc1ccnc(-c2ccc3c(c2)CN(C2CCC(=O)NC2=O)C3=O)c1F` (stereo partly drawn) [Example 217, 3-(5-(3-fluoro-4-(((R)-2-((R)-1-hydroxy-1-phenylethyl)pyrrolidin-1-yl)methyl)pyridin-2-yl)-1-oxoisoindolin-2-yl)piperidine-2,6-dione], the half-maximal degradation concentration (DC50) was found to be 390 nM.
As for `C[C@](O)(c1ccccc1)[C@H]1CCCN1Cc1ccnc(-c2ccc3c(c2)CN(C2CCC(=O)NC2=O)C3=O)c1F` (stereo partly drawn) [Example 218, 3-(5-(3-fluoro-4-(((R)-2-((S)-1-hydroxy-1-phenylethyl)pyrrolidin-1-yl)methyl)pyridin-2-yl)-1-oxoisoindolin-2-yl)piperidine-2,6-dione], the half-maximal degradation concentration (DC50) was 4130 nM.
Next, `O=C1CCC(N2Cc3cc(-c4nccc(CN5CC6CC(C5)C6O)c4F)ccc3C2=O)C(=O)N1` (stereo not shown) [Example 219, 3-(5-(3-fluoro-4-((6-hydroxy-3-azabicyclo[3.1.1]heptan-3-yl)methyl)pyridin-2-yl)-1-oxoisoindolin-2-yl)piperidine-2,6-dione]: 9.8 nM.
Turning to `CC1(O)CCCN(Cc2ccnc(-c3ccc4c(c3)CN(C3CCC(=O)NC3=O)C4=O)c2F)CC1` (stereo not shown) [Example 220, 3-(5-(3-fluoro-4-((4-hydroxy-4-methylazepan-1-yl)methyl)pyridin-2-yl)-1-oxoisoindolin-2-yl)piperidine-2,6-dione], the half-maximal degradation concentration (DC50) was found to be 34.2 nM.
On to `CC1(C)CN(Cc2ccnc(-c3ccc4c(c3)CN(C3CCC(=O)NC3=O)C4=O)c2F)CCC1O` (stereo not shown) [Example 221, 3-(5-(3-fluoro-4-((4-hydroxy-3,3-dimethylpiperidin-1-yl)methyl)pyridin-2-yl)-1-oxoisoindolin-2-yl)piperidine-2,6-dione], for which the half-maximal degradation concentration (DC50) is 13900 nM.
On to `O=C1CCC(N2Cc3cc(-c4nccc(CN5CCC6(CC5)CC(O)CO6)c4F)ccc3C2=O)C(=O)N1` (stereo not shown) [Example 222, 3-(5-(3-fluoro-4-((3-hydroxy-1-oxa-8-azaspiro[4.5]decan-8-yl)methyl)pyridin-2-yl)-1-oxoisoindolin-2-yl)piperidine-2,6-dione], for which the 50% degradation concentration (DC50) was 2760 nM.
Next, `CC1(O)CN(Cc2ccnc(-c3ccc4c(c3)CN(C3CCC(=O)NC3=O)C4=O)c2F)C1` (stereo not shown) [Example 224, 3-(5-(3-fluoro-4-((3-hydroxy-3-methylazetidin-1-yl)methyl)pyridin-2-yl)-1-oxoisoindolin-2-yl)piperidine-2,6-dione]: 72.9 nM; `O=C1CCC(N2Cc3cc(-c4nccc(CN5CCC6(CC5)CC(O)C6)c4F)ccc3C2=O)C(=O)N1` (stereo not shown) [Example 225, 3-(5-(3-fluoro-4-((2-hydroxy-7-azaspiro[3.5]nonan-7-yl)methyl)pyridin-2-yl)-1-oxoisoindolin-2-yl)piperidine-2,6-dione]: 29.3 nM; `O=C1CCC(N2Cc3cc(-c4nccc(CN5CCC(O)CC5)c4F)ccc3C2=O)C(=O)N1` (stereo not shown) [Example 226, 3-(5-(3-fluoro-4-((4-hydroxypiperidin-1-yl)methyl)pyridin-2-yl)-1-oxoisoindolin-2-yl)piperidine-2,6-dione]: 51.5 nM.
As to `CC(=O)N1CC2CCC(C1)N2Cc1ccnc(-c2ccc3c(c2)CN(C2CCC(=O)NC2=O)C3=O)c1F` (stereo not shown) [Example 227, 3-(5-(4-((3-acetyl-3,8-diazabicyclo[3.2.1]octan-8-yl)methyl)-3-fluoropyridin-2-yl)-1-oxoisoindolin-2-yl)piperidine-2,6-dione], the 50% degradation concentration (DC50) was no less than 10000 nM.
As for `C[C@@H]1CN(Cc2ccnc(-c3ccc4c(c3)CN(C3CCC(=O)NC3=O)C4=O)c2F)C[C@H]1O` (stereo partly drawn) [Example 232, 3-(5-(3-fluoro-4-(((3S,4R)-3-hydroxy-4-methylpyrrolidin-1-yl)methyl)pyridin-2-yl)-1-oxoisoindolin-2-yl)piperidine-2,6-dione], the DC50 turned out to be 38.6 nM.
Consider `O=C1CCC(N2Cc3cc(-c4nccc(CN5CCC(O)(c6ccc(F)cc6)C5)c4F)ccc3C2=O)C(=O)N1` (stereo not shown) [Example 234, 3-(5-(3-fluoro-4-((3-(4-fluorophenyl)-3-hydroxypyrrolidin-1-yl)methyl)pyridin-2-yl)-1-oxoisoindolin-2-yl)piperidine-2,6-dione], for which the DC50 turned out to be 8410 nM.
For `O=C1CCC(N2Cc3cc(-c4nccc(CN5CCC(O)(Cc6ccccc6)CC5)c4F)ccc3C2=O)C(=O)N1` (stereo not shown) [Example 235, 3-(5-(4-((4-benzyl-4-hydroxypiperidin-1-yl)methyl)-3-fluoropyridin-2-yl)-1-oxoisoindolin-2-yl)piperidine-2,6-dione] the value was 330 nM; for `CC(C)(C)OC(=O)N[C@H]1C[C@H](F)CN(Cc2ccnc(-c3ccc4c(c3)CN(C3CCC(=O)NC3=O)C4=O)c2F)C1` (stereo partly drawn) [Example 236, tert-butyl ((3S,5S)-1-((2-(2-(2,6-dioxopiperidin-3-yl)-1-oxoisoindolin-5-yl)-3-fluoropyridin-4-yl)methyl)-5-fluoropiperidin-3-yl)carbamate], no less than 10000 nM; for `CC1CC(O)(c2ccc(F)cc2)CN1Cc1ccnc(-c2ccc3c(c2)CN(C2CCC(=O)NC2=O)C3=O)c1F` (stereo not shown) [Example 237, 3-(5-(3-fluoro-4-((4-(4-fluorophenyl)-4-hydroxy-2-methylpyrrolidin-1-yl)methyl)pyridin-2-yl)-1-oxoisoindolin-2-yl)piperidine-2,6-dione], no less than 10000 nM.
Consider `O=C1CCC(N2Cc3cc(-c4nccc(CN5CCC(O)(c6ccccc6Cl)C5)c4F)ccc3C2=O)C(=O)N1` (stereo not shown) [Example 238, 3-(5-(4-((3-(2-chlorophenyl)-3-hydroxypyrrolidin-1-yl)methyl)-3-fluoropyridin-2-yl)-1-oxoisoindolin-2-yl)piperidine-2,6-dione], for which the half-maximal degradation concentration (DC50) turned out to be 172 nM.
With `Cc1cc(C2CCCN2Cc2ccnc(-c3ccc4c(c3)CN(C3CCC(=O)NC3=O)C4=O)c2F)on1` (stereo not shown) [Example 244, 3-(5-(3-fluoro-4-((2-(3-methylisoxazol-5-yl)pyrrolidin-1-yl)methyl)pyridin-2-yl)-1-oxoisoindolin-2-yl)piperidine-2,6-dione], the half-maximal degradation concentration (DC50) stood at 242 nM.
Regarding `COC(=O)N[C@H]1CN(Cc2ccnc(-c3ccc4c(c3)CN(C3CCC(=O)NC3=O)C4=O)c2F)C[C@@H]1O` (stereo partly drawn) [Example 248, methyl ((3S,4S)-1-((2-(2-(2,6-dioxopiperidin-3-yl)-1-oxoisoindolin-5-yl)-3-fluoropyridin-4-yl)methyl)-4-hydroxypyrrolidin-3-yl)carbamate], the 50% degradation concentration (DC50) was no less than 10000 nM.
For `O=C1CCC(N2Cc3cc(-c4nccc(CN5CCC6(CC5)OCc5ccccc56)c4F)ccc3C2=O)C(=O)N1` (stereo not shown) [Example 249, 3-(5-(4-((3H-spiro[isobenzofuran-1,4′-piperidin]-1′-yl)methyl)-3-fluoropyridin-2-yl)-1-oxoisoindolin-2-yl)piperidine-2,6-dione] the value was no less than 10000 nM; for `O=C1CCC(N2Cc3cc(-c4nccc(CN5CCCC(O)(c6ccccc6)C5)c4F)ccc3C2=O)C(=O)N1` (stereo not shown) [Example 250, 3-(5-(3-fluoro-4-((3-hydroxy-3-phenylpiperidin-1-yl)methyl)pyridin-2-yl)-1-oxoisoindolin-2-yl)piperidine-2,6-dione], no less than 10000 nM.
Next, `CC(=O)N1CC2(CCN(Cc3ccnc(-c4ccc5c(c4)CN(C4CCC(=O)NC4=O)C5=O)c3F)CC2)C1` (stereo not shown) [Example 251, 3-(5-(4-((2-acetyl-2,7-diazaspiro[3.5]nonan-7-yl)methyl)-3-fluoropyridin-2-yl)-1-oxoisoindolin-2-yl)piperidine-2,6-dione]: no less than 10000 nM.
